Results reported in article PMC6199744, “Development of Chemical Proteomics for the Folateome and Analysis of the Kinetoplastid Folateome” (ACS Infectious Diseases, 2018).
Read-outs that look alike come from different tables or passages of the source.

Key:
Type in all cases: binding
[1] = biological target: T1, HeLa cell extract proteins (Homo sapiens, UniProt P04406)
T1 construct: endogenous in cells; host or cells: HeLa cell extract

[2] = biological target: T2, HeLa cell extract proteins (Homo sapiens, UniProt Q9NVI1)
T2 construct: endogenous in cells; host or cells: HeLa cell extract
T2 sequence (Q9NVI1 1-1328): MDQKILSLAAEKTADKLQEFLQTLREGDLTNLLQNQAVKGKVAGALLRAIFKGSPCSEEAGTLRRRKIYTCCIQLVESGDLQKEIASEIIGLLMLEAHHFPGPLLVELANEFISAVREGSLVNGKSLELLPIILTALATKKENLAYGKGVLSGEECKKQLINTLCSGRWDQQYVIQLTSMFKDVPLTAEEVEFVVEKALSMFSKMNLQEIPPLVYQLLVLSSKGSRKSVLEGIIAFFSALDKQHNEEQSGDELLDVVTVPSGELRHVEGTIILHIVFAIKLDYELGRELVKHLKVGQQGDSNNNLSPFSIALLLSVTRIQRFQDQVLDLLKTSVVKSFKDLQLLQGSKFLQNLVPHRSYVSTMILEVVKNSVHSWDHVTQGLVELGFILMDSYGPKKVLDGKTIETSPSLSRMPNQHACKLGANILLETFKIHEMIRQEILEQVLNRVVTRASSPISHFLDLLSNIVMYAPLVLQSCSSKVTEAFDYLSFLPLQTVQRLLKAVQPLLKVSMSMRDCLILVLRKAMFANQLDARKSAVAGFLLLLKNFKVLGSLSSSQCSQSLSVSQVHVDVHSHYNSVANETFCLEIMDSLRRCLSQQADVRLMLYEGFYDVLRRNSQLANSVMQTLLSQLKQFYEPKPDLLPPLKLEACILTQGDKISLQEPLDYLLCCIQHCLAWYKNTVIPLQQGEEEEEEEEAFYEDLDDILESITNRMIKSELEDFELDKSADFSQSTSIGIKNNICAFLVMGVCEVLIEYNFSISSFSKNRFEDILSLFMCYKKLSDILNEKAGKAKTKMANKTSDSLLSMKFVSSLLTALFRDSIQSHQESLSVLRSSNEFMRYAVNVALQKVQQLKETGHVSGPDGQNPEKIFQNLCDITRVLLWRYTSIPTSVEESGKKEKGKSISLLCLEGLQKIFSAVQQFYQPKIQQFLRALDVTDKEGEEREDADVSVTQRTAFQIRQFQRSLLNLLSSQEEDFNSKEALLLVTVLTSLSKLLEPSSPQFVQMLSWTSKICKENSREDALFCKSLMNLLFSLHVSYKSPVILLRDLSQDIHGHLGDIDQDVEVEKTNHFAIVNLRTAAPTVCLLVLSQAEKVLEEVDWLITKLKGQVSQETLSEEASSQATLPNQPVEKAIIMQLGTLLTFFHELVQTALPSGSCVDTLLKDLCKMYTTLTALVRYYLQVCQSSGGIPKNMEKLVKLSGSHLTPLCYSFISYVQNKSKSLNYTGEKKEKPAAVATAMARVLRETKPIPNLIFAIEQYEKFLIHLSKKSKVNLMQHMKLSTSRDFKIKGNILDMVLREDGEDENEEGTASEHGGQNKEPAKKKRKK

[3] = biological target: T3, HeLa cell extract proteins (Homo sapiens, UniProt P08758)
T3 construct: endogenous in cells; host or cells: HeLa cell extract
T3 sequence (P08758 1-320): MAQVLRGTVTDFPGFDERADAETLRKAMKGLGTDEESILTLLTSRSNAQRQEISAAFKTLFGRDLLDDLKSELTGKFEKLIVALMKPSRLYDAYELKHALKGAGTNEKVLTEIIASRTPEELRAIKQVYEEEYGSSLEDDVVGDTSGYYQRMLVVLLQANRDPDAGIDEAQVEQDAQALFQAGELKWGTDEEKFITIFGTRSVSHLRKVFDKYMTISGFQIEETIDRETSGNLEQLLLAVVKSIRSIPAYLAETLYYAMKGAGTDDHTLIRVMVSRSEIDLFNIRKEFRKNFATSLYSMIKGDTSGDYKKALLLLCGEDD

[4] = biological target: T4, HeLa cell extract proteins (Homo sapiens, UniProt O43148)
T4 construct: endogenous in cells; host or cells: HeLa cell extract

[5] = HeLa, protein G3P1_HUMAN (GLYCERALDEHYDE-3-PHOSPHATE DEHYDROGENASE, MUSCLE.)
[6] = HeLa, protein GAPDH (39 KDA PROTEIN.)
[7] = HeLa, protein ANXA5 (ANNEXIN A5.)

T4 sequence (O43148 whole entry): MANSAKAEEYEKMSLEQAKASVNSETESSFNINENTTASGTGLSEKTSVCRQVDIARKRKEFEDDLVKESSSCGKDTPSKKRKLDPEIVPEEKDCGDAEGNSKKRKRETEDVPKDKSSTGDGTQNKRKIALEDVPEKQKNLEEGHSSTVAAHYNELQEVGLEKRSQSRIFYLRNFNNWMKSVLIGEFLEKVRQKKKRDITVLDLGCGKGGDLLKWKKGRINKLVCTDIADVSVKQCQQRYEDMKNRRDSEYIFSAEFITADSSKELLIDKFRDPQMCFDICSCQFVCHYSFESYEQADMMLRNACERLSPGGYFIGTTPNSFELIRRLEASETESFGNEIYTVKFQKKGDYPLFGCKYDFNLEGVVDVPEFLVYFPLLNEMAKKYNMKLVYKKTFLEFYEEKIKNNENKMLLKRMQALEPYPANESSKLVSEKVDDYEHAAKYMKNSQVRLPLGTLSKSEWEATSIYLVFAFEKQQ
T1 sequence (P04406 whole entry): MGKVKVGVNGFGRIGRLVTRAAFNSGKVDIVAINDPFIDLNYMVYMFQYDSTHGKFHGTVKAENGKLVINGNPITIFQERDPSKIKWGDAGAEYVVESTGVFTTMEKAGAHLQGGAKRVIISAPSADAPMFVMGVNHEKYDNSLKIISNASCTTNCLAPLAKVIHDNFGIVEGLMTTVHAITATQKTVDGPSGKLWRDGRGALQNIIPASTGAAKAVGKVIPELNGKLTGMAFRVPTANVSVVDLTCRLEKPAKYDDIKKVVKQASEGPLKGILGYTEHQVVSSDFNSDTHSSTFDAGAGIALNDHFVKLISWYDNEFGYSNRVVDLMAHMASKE

Nc1nc2c(c(=O)[nH]1)N(C=O)C(CNc1ccc(C(=O)N[C@@H](CCC(=O)O)C(=O)O)cc1)CN2 (stereo partly shown) [LEU, leucovorin]
fold changes relative to vehicle control ([1]; protein GAPDH, HeLa): 1.01 | fold changes relative to vehicle control ([2]; HeLa, protein FANCI): 0.87 | fold changes relative to vehicle control ([3]; HeLa, protein ANXA5): 0.99 | fold changes relative to vehicle control ([4]; HeLa, captured protein RNMT): 0.88

Nc1nc2[nH]cc(CCc3ccc(C(=O)N[C@@H](CCC(=O)O)C(=O)O)cc3)c2c(=O)[nH]1 [PTX, pemetrexed]
fold changes relative to vehicle control [1]: 1.14 | fold changes relative to vehicle control [2]: 1.04 | fold changes relative to vehicle control [3]: 0.97 | fold changes relative to vehicle control [4]: 0.83

CCCCCCOc1ccc(Cc2cnc(N)nc2N)cc1 [compound 1]
fold changes relative to vehicle control [1, 5]: 1.39 fold | fold changes relative to vehicle control [1, 6]: 1.52 fold | fold changes relative to vehicle control ([2]; protein FANCI, HeLa): 1 | fold changes relative to vehicle control [3, 7]: 1.33 fold | fold changes relative to vehicle control ([4]; HeLa, protein RNMT): 0.92

CCCCCCOc1cccc(Cc2cnc(N)nc2N)c1 [compound 2]
fold changes relative to vehicle control [1, 5]: 2.61 fold | fold changes relative to vehicle control [1, 6]: 2.46 fold | fold changes relative to vehicle control ([2]; protein FANCI, HeLa): 1.02 | fold changes relative to vehicle control [3, 7]: 2.23 fold | fold changes relative to vehicle control ([4]; HeLa, protein RNMT): 0.97

Nc1nc2cccc(-c3ccccc3)c2n1Cc1ccc(Cl)c(Cl)c1 [compound 3]
fold changes relative to vehicle control [1, 5]: 0.84 fold | fold changes relative to vehicle control [1, 6]: 0.95 fold | fold changes relative to vehicle control ([2]; protein FANCI, HeLa): 1.19 | fold changes relative to vehicle control [3, 7]: 0.91 fold | fold changes relative to vehicle control ([4]; HeLa, protein RNMT): 0.93

NCCOCCOCC(=O)Nc1nc2ncc(CNc3ccc(C(=O)NC(CCC(=O)O)C(=O)O)cc3)nc2c(=O)[nH]1 (stereo not shown) [compound 6]
fold changes relative to vehicle control ([1]; protein GAPDH, HeLa): 1.35 | fold changes relative to vehicle control ([2]; HeLa, protein FANCI): 1.11 | fold changes relative to vehicle control ([3]; HeLa, protein ANXA5): 1.26 | fold changes relative to vehicle control ([4]; HeLa, captured protein RNMT): 0.79

NCCCNc1ccc(C(=O)NC(CCC(=O)O)C(=O)O)cc1 (stereo not shown) [compound 7]
fold changes relative to vehicle control ([1]; protein GAPDH, HeLa): 0.97 | fold changes relative to vehicle control ([2]; HeLa, protein FANCI): 1.09 | fold changes relative to vehicle control ([3]; HeLa, protein ANXA5): 0.9 | fold changes relative to vehicle control ([4]; HeLa, captured protein RNMT): 1.02
